From patent publication US9642897B2, “Treatment of bone diseases” (THE UNIVERSITY OF SYDNEY, priority 2011, dated 2017)

Tests used:
[1] = system: Runx2 and OCN; test: Western blot of Runx2 and OCN in bone marrow cells of PA-treated mice; format: in vivo, C57BL/6 mice
Description: Marrow cells were obtained from the left femur of PA- and vehicle-treated animals (n=6 per group) by flushing with Dulbecco's alpha modified medium (DMEM). Red blood cells in marrow cells were hemolyzed in 0.017 M tris-HCl, pH 7.5, buffer containing 0.8% ammonium chloride. Hemolyzed bone marrow suspensions were rinsed twice with phosphate buffered saline (PBS). Protein extracts were obtained after suspending the cells in 2 volumes of buffer containing 10 mM EDTA, 0.5 mM phenylmethylsulfonyl fluoride, and one Complete™ protease inhibitor mixture tablet (Boehringer Mannheim, Laval, Quebec, Canada). […] Protein content was determined with a protein assay kit (Bio-Rad. Mississauga, Ontario), and samples were then aliquoted and stored at −80° C. […] Antigen-antibody complexes were detected by chemiluminescence using a kit of reagents from ECL (Amersham, UK) and blots were exposed to high-performance chemiluminescence film (Amersham, UK). Films were scanned and the optical density of each specific band analysed using the ImageMaster program and expressed as OD/mm2/100 μg of total protein. Relative intensity of the samples was determined comparing the protein of interest in the treated mice using the values of vehicle-treated mice as controls (100%). […]

[2] = system: OVX C57BL/6 mice (osteoporosis model); test: Quantitative μCT of femur and vertebrae in Sham and OVX mice; format: in vivo; conditions: oral PA 6 weeks
Description: Nine-month-old oophorectomised (OVX) and SHAM-operated C57BL/6 mice (n=24 per group) were obtained from the Animal Resources Centre (Perth, Wash.). After 2 weeks of acclimation, mice were divided into four groups (Table 2) and received treatment in their drinking water for a total of 6 weeks. Mice treated with plain water were used as controls. Mice were housed in cages in a limited access room. Mice were administered a lethal dose of anaesthetic at the indicated times, exsanguinated, and imaged using a Faxitron MX20 equipped with an FPX-2 Imaging system (Dalsa Medoptics, Waterloo, Ontario, Canada). μ-CT was performed on the left femur and lumbar vertebrae after removal of soft tissues and overnight fixation in 4% paraformaldehyde. The distal metaphysis of the femur and the body of the vertebrae were scanned with a Skyscan 1072 micro-CT instrument (Skyscan, Antwerp, Belgium). Image acquisition was performed at 100 kV and 98 μA, with a 0.9° rotation between frames. The two-dimensional images were used to generate three-dimensional reconstructions to obtain quantitative data with the 3D Creator software supplied with the instrument. Nomenclature and abbreviations of 3D-μCT parameters follow the recommendations of the American Society of Bone and Mineral Research (see Bouxsein et al. (2010), “Guidelines for assessment of bone microstructure in rodents using micro-computed tomography”, J Bone Miner Res., 25: 1468-1486).

[3] = Therapeutic safety of oral PA: weight, water consumption, survival; format: in vivo, C57BL/6 mice; conditions: for Weight: after 6 weeks; for Water left: initial volume 500 mL, weekly average
Description: Nine-month-old oophorectomised (OVX) and SHAM-operated C57BL/6 mice (n=24 per group) were obtained from the Animal Resources Centre (Perth, Wash.). After 2 weeks of acclimation, mice were divided into four groups (Table 2) and received treatment in their drinking water for a total of 6 weeks. Mice treated with plain water were used as controls. Mice were housed in cages in a limited access room.
Water left in the bottle (initial volume of 500 mL) was also quantified every week. […] These volumes correspond with the drinking pattern previously reported in this mouse model. (iii) Effect of Oral PA on Mineral Absorption in OVX Mice

[4] = system: bone marrow stromal cells (BMSC) from IDO-1 KO and WT mice; test: Osteogenic differentiation of BMSC from IDO-1 KO and WT mice (alizarin red); format: cell-based; conditions: vs vehicle
Description: One side tibiae from 9-month-old IDO-1^−/− and IDO-1^+/+ mice (n=6 per group) were flushed using a 21-gauge needle attached to a 10 ml syringe filled with Dulbecco's modified Eagle's medium (DME) (GIBCO BRL, Gaithersburg, Md., USA). The bone marrow cells were filtered through a cell strainer with a 70-micron nylon mesh (BD Bioscience, Bedford, Mass., USA) and plated in 10 cm^2 tissue culture dishes. The cells were incubated in growth medium at 37° C. with 5% humidified CO2 and isolated by their adherence to tissue culture plastic. Medium was aspirated and replaced with fresh medium every 2 to 3 days to remove non-adherent cells. The adherent MSC were grown to confluency for about 7 days and defined as MSC at passage 0, harvested with 0.25% trypsin and 1 mM EDTA for 5 min at 37° C., diluted 1:3 in growth medium, plated and grown to confluency for further expansion. After 2nd and 3rd passages, MSC were used for subsequent experiments.
To induce differentiation, a total of 10^4 cells were diluted in osteogenic medium and plated in 24 dishes per group in the presence or absence of either quinolinic or picolinic acid. Media was aspirated and replaced with fresh osteogenic medium every 3 days. At 21 days, medium was removed and cultures were fixed in 10% v/v formol/saline solution for 5 min. Cultures were stained with Alizarin Red, which was then extracted and quantified at 570 nm.

Compound: O=C(O)c1ccccn1 [PA, pyridine-2-carboxylic acid]
- protein expression of OCN and Runx2 (immunoblot) [1]: significant increase
- bone relative to tissue volume (BV/TV) [2]: significant and dose-dependent increase
- numbers of trabeculae (Tb.N) [2]: increased
- thickness of trabeculae (Tb.Th) [2]: increased
- Weight ([3]; OVX, PA250 (250 mg/kg/d)): 26 ± 1.6 gm
- Water left ([3]; OVX, PA250): 195 ± 28 ml/week
- Weight ([3]; OVX, PA500 (500 mg/kg/d)): 28 ± 0.4 gm
- Water left ([3]; OVX, PA500): 195 ± 35 ml/week
- Weight ([3]; OVX, PA1000 (1 gm/kg/d)): 26 ± 1.3 gm
- Water left ([3]; OVX, PA1000): 250 ± 38 ml/week
- Weight ([3]; Sham, PA250 (250 mg/kg/d)): 27 ± 2.0 gm
- Water left ([3]; Sham, PA250): 200 ± 32 ml/week
- Weight ([3]; Sham, PA500 (500 mg/kg/d)): 26 ± 2.4 gm
- Water left ([3]; Sham, PA500): 155 ± 35 ml/week
- Weight ([3]; Sham, PA1000 (1 gm/kg/d)): 26 ± 1.3 gm
- Water left ([3]; Sham, PA1000): 260 ± 45 ml/week
- mice survival rate ([3]; female, C57BL/6, mouse, in vivo, po, 6 weeks): 100%
- side effects ([3]; oral PA 6 weeks): no evidence of side effects
- weight and water consumption vs vehicle-treated controls ([3]; oral PA 6 weeks): no difference
- mineralisation (alizarin red staining) [4]: higher levels of mineralisation
